From BindingDB's records for doi:10.1039/d0md00137f (University of Regensburg, 2020)

Biological target: Muscarinic acetylcholine receptor M2 (Homo sapiens) (UniProt P08172)
Assay: Displacement of [3H]NMS from human recombinant muscarinic receptor M2 expressed in […] cell membranes measured after 3 hrs by radioligand competition binding assay

Ki	SMILES
0.589 nM	NCCNC(=O)CCc1cn(CCCCC2CCN(CC(=O)N3c4ccccc4NC(=O)c4ccccc43)CC2)cn1
3 nM	Cc1cc(/C=C/C=C/c2ccc(N(C)C)cc2)cc(C)[n+]1CCN1CCN(CCCCC2CCN(CC(=O)N3c4ccccc4NC(=O)c4ccccc43)CC2)CC1
